What all share (type): cell-based
One test addresses T1, adenosine A1 receptor (Homo sapiens, UniProt P30542).
T1 construct: expressed in transfected cells; host or cells: CHO (Chinese Hamster Ovary)
T1 sequence (P30542 1-326): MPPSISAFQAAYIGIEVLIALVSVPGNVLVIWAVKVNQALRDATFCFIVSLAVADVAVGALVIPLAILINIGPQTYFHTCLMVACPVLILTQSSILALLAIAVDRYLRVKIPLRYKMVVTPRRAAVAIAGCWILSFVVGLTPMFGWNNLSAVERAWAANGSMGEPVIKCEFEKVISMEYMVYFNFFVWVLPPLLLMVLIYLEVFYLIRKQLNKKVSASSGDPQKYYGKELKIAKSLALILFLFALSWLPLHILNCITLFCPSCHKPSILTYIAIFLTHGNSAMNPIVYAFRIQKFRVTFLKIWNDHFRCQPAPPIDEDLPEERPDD
In words: Indirect determination of adenosine agonism by way of gene expression (cAMP-dependent luciferase), A1 cells. The conditions noted are these: CHO cells stably transfected with A1 receptor cDNA; 1 μM forskolin; concentration at which 50% of the luciferase answer is inhibited. The text has this:
(§1) B-1. Indirect Determination of the Adenosine Agonism by Way of Gene Expression
(§2) Cells of the CHO (Chinese Hamster Ovary) permanent cell line are transfected stably with the cDNA for the adenosine receptor subtypes A1, A2a and A2b. The adenosine A1 receptors are coupled to the adenylate cyclase by way of Gi proteins, while the adenosine A2a and A2b receptors are coupled by way of Gs proteins. In correspondence with this, the formation of cAMP in the cell is inhibited or stimulated, respectively. After that, expression of the luciferase is modulated by way of a cAMP-dependent promoter. The luciferase test is optimized, with the aim of high sensitivity and reproducibility, low variance and good suitability for implementation on a robot system, by varying several test parameters, such as cell density, duration of the growth phase and the test incubation, forskolin concentration and medium composition. The following test protocol is used for pharmacologically characterizing cells and for the robot-assisted substance screening:
(§3) The stock cultures are grown, at 37° C. and under 5% CO2, in DMEM/F12 medium containing 10% FCS (foetal calf serum) and in each case split 1:10 after 2-3 days. The test cultures are seeded in 384-well plates with 2000 cells per well and grown at 37° C. for approx. 48 hours. The medium is then replaced with a physiological sodium chloride solution (130 mM sodium chloride, 5 mM potassium chloride, 2 mM calcium chloride, 20 mM HEPES, 1 mM magnesium chloride hexahydrate, 5 mM sodium bicarbonate, pH 7.4). The substances to be tested, which are dissolved in DMSO, are pipetted into the test cultures (maximum final concentration of DMSO in the test mixture: 0.5%) in a dilution series of from 5×10^−11M to 3×10^−6M (final concentration). 10 minutes later, forskolin is added to the A1 cells and all the cultures are subsequently incubated at 37° C. for four hours. After that, 35 μl of a solution which is composed of 50% lysis reagent (30 mM disodium hydrogenphosphate, 10% glycerol, 3% TritonX100, 25 mM TrisHCl, 2 mM dithiotreitol (DTT), pH 7.8) and 50% luciferase substrate solution (2.5 mM ATP, 0.5 mM luciferin, 0.1 mM coenzyme A, 10 mM tricine, 1.35 mM magnesium sulphate, 15 mM DTT, pH 7.8) are added to the test cultures, which are shaken for approx. 1 minute and the luciferase activity is measured using a camera system. The EC50 values are determined, i.e., the concentrations at which 50% of the luciferase answer is inhibited in the case of the A1 cell, and, respectively, 50% of the maximum stimulation with the corresponding substance is achieved in the case of the A2b and A2a cells. […] Pharmacol., 357 (1998), 1-9).

The target of another test is T2, adenosine A2b receptor (Homo sapiens, UniProt P29275).
T2 construct: expressed in transfected cells; host or cells: CHO (Chinese Hamster Ovary)
T2 sequence (P29275 1-332): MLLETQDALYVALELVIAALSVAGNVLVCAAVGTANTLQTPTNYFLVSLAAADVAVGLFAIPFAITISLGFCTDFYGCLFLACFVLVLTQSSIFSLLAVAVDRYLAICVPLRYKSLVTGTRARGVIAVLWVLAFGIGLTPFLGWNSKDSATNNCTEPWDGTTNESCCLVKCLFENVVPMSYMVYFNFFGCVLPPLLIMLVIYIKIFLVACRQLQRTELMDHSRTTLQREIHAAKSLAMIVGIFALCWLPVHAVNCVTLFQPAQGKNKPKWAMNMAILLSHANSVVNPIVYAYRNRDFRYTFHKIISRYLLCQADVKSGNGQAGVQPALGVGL
Briefly: Indirect determination of adenosine agonism by way of gene expression (cAMP-dependent luciferase), A2b cells. As to conditions: CHO cells stably transfected with A2b receptor cDNA; 50% of the maximum stimulation of luciferase.
From the text: as §1, §2, §3

The target in another test is T3, adenosine A2a receptor (Homo sapiens, UniProt P29274).
T3 construct: expressed in transfected cells; host or cells: CHO (Chinese Hamster Ovary)
Briefly: Indirect determination of adenosine agonism by way of gene expression (cAMP-dependent luciferase), A2a cells. The conditions noted are these: CHO cells stably transfected with A2a receptor cDNA; 50% of the maximum stimulation of luciferase.
From the text: as §1, §2, §3

Bounds are passed on as bounds.

T3 sequence (P29274 whole entry): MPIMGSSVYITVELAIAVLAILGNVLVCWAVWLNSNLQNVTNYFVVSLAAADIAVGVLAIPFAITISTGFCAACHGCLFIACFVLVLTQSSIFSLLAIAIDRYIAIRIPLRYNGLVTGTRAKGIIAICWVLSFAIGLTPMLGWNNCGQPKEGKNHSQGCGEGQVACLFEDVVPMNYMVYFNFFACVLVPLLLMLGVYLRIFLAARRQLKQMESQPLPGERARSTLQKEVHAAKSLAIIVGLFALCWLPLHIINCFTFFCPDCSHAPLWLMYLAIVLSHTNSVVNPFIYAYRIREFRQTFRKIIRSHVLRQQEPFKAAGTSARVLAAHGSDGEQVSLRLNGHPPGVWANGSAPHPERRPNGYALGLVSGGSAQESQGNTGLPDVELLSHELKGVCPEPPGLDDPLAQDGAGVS

Take `N#Cc1c(N)nc(SCc2coc(-c3ccc(Cl)cc3)n2)c(C#N)c1-c1ccc(OC[C@@H](O)CO)nc1` [Example 42, 2′-Amino-6′-({[2-(4-chlorophenyl)-1,3-oxazol-4-yl]methyl}thio)-6-{[(2S)-2,3-dihydroxypropyl]-oxy}-3,4′-bipyridine-3′,5′-dicarbonitrile]: the EC50 on adenosine A1 receptor came out at 0.09 nM; on adenosine A2b receptor it was 516 nM; on adenosine A2a receptor, 355 nM.
As to `N#Cc1c(N)nc(SCc2coc(-c3ccc(Cl)cc3)n2)c(C#N)c1-c1ccc(OC[C@H](O)CO)nc1` [Example 43, 2′-Amino-6′-({[2-(4-chlorophenyl)-1,3-oxazol-4-yl]methyl}thio)-6-{[(2R)-2,3-dihydroxypropyl]-oxy}-3,4′-bipyridine-3′,5′-dicarbonitrile], the EC50 at adenosine A1 receptor is 0.04 nM; on adenosine A2b receptor it was 185 nM; at adenosine A2a receptor, 72 nM.
The matching figures for `N#Cc1c(NCCO)nc(SCc2csc(-c3ccc(Cl)cc3)n2)c(C#N)c1-c1ccc(OCCO)nc1` [Example 46]: 0.04 nM, 166 nM and 266 nM.
The matching figures for `N#Cc1c(N)nc(SCc2csc(Nc3cccc(F)c3)n2)c(C#N)c1-c1ccc(OCCO)nc1` [Example 5]: 0.6 nM, 8.5 nM and 190 nM.
As to `N#Cc1c(N)nc(SCc2csc(Nc3ccc(F)cc3)n2)c(C#N)c1-c1ccc(OCCO)nc1` [Example 3], the values for the EC50 on adenosine A1 receptor, on adenosine A2b receptor and on adenosine A2a receptor were 0.2 nM, 3.7 nM and 123 nM, respectively.
For `N#Cc1c(N)nc(SCc2csc(Nc3ccc(F)c(F)c3)n2)c(C#N)c1-c1ccc(OCCO)nc1` [Example 11], the EC50 at adenosine A1 receptor worked out at 0.4 nM; on adenosine A2b receptor, 5.7 nM; on adenosine A2a receptor it was 150 nM.
On to `N#Cc1c(N)nc(SCc2csc(-c3ccc(Cl)cc3)n2)c(C#N)c1-c1ccc(OCCO)nc1` [Example 19, 2′-Amino-6′-({[2-(4-chlorophenyl)-1,3-thiazol-4-yl]methyl}thio)-6-(2-hydroxyethoxy)-3,4′-bipyridine-3′,5′-dicarbonitrile], for which the EC50 came to 0.04 nM at adenosine A1 receptor, 234 nM at adenosine A2b receptor and 663 nM at adenosine A2a receptor.
On to `N#Cc1c(N)nc(SCc2csc(Nc3ccc(F)c(Cl)c3)n2)c(C#N)c1-c1ccc(OCCO)nc1` [Example 1, 2′-Amino-6′-[({2-[(3-chloro-4-fluorophenyl)amino]-1,3-thiazol-4-yl}methyl)thio]-6-(2-hydroxyethoxy)-3,4′-bipyridine-3′,5′-dicarbonitrile], for which the half-maximal effective concentration (EC50) at adenosine A1 receptor was 0.8 nM; on adenosine A2b receptor, 5.8 nM; at adenosine A2a receptor, 2180 nM.
For `N#Cc1c(SCc2csc(-c3ccc(Cl)cc3)n2)nc(N2CCCC2)c(C#N)c1-c1ccc(OCCO)nc1` [Example 44, 2′-({[2-(4-Chlorophenyl)-1,3-thiazol-4-yl]methyl}thio)-6-(2-hydroxyethoxy)-6′-pyrrolidin-1-yl-3,4′-bipyridine-3′,5′-dicarbonitrile], the EC50 on adenosine A1 receptor was found to be 0.08 nM; on adenosine A2b receptor it was 95 nM; at adenosine A2a receptor it was 547 nM.
On to `N#Cc1c(N)nc(SCc2cccc(Nc3ccncc3)n2)c(C#N)c1-c1ccc(OCCO)nc1` [Example 22], for which the EC50 is 0.6 nM at adenosine A1 receptor, 117 nM at adenosine A2b receptor and 120 nM at adenosine A2a receptor.
As to `N#Cc1c(N)nc(SCc2coc(-c3ccc(Cl)cc3)n2)c(C#N)c1-c1ccc(OCCO)nc1` [Example 31], the EC50 turned out to be 0.09 nM on adenosine A1 receptor, 235 nM at adenosine A2b receptor and 101 nM at adenosine A2a receptor.
Take `N#Cc1c(N)nc(SCc2ncon2)c(C#N)c1-c1ccc(OCCO)nc1` [Example 25]: the concentration giving a half-maximal response (EC50) on adenosine A1 receptor is 4.1 nM; on adenosine A2b receptor it was > 3000 nM; at adenosine A2a receptor, > 3000 nM.
In the case of `N#Cc1c(N)nc(SCc2cscn2)c(C#N)c1-c1ccc(OCCO)nc1` [Example 13], the values for the EC50 on adenosine A1 receptor, at adenosine A2b receptor and at adenosine A2a receptor were 0.09 nM, 5.5 nM and 21 nM, respectively.
Regarding `Cc1cc(CSc2nc(N)c(C#N)c(-c3ccc(OCCO)nc3)c2C#N)nc(Nc2ccc(F)cc2)n1` [Example 21], the EC50 on adenosine A1 receptor was 3.6 nM; on adenosine A2b receptor it was > 3000 nM; at adenosine A2a receptor, > 3000 nM.
For the compound `Cc1oc(-c2ccc(Cl)cc2)nc1CSc1nc(N)c(C#N)c(-c2ccc(OCCO)nc2)c1C#N` [Example 37], the EC50 is 0.3 nM at adenosine A1 receptor, 1260 nM at adenosine A2b receptor and 1750 nM on adenosine A2a receptor.

What is called EC50 is the concentration that produces a half-maximal response. Higher therefore signals a less potent agent.
